Reference: US5958445A, “Oral Formulations of S(+)-etodolac” (priority 1998, dated 1999)
Values after ≈ are worked out from the molar mass of the structure shown. Where two headings read alike, the source gives them in different places.

Key:
[1] = Physicians' Desk Reference, 1995; cited from earlier work
animal models = details: in vivo; cited from earlier work
physchem = type: physicochemical
Experimental: Equilibrium solubility data for S(+)-etodolac based on pH was determined by placing excess amounts of the S(+)-etodolac and about 5 mL of the dissolution medium in screw-capped vials which were covered with aluminum foil and then tumbled in a 25° C. water bath for 3 days. Slurries were filtered through […] Gelman disposable filters. Filtrates were appropriately diluted with their dissolution medium and analyzed by a Cary 210 UV-VIS spectrophotometer at 278 nm.
The dissolution media used for the pH-solubility profile and ionic strength effect were HCl, HAc--NaAc, KH2 PO4 --NaOH, K2 CO3 --KHCO3, H3 BO3 --NaOH, and NaOH solutions, where the ionic strengths of media were adjusted to be 0.1 by the addition of NaCl. Those solvent systems used for cosolvent solubilization were various ratios of PEG 400, ethanol, triethanolamine (TEA), and dimethylacetamide (DMA) to aqueous solutions. pH values of the slurries were measured before and after equilibrium.

acute pain = details: cited from earlier work
[2] = in vivo; cited from earlier work
[3] = Solubility in words (Physicians' Desk Reference and description); type: physicochemical; details: acid form
[4] = J. Med. Chem. 1983, 26, 1778-1780; cited from earlier work
[5] = 20% ethanol, organic solvent or mixture
[6] = 20% peg 400, organic solvent or mixture
[7] = 40% ethanol, organic solvent or mixture
[8] = 40% peg 400, organic solvent or mixture
[9] = 60% ethanol, organic solvent or mixture
[10] = 60% peg 400, organic solvent or mixture
[11] = 80% ethanol, organic solvent or mixture
[12] = 80% peg 400, organic solvent or mixture
[13] = 100% ethanol, organic solvent or mixture
[14] = 100% triethanolamine, organic solvent or mixture

CCc1cccc2c3c([nH]c12)C(CC)(CC(=O)O)OCC3 (racemic) [etodolac, (±) 1,8-diethyl-1,3,4,9-tetrahydropyrano[3,4-b]indole-1-acetic acid]
solubility in alcohols, chloroform, dimethyl sulfoxide and aqueous polyethylene glycol [1]: soluble
solubility in water [1]: insoluble
activities in animal models (animal models): exhibits anti-inflammatory, analgesic, and antipyretic activities
solubility at 72 h (physchem; 2% triethanolamine): 37.7 mg/mL (≈ 131 mM)
solubility at 72 h (physchem; 4% triethanolamine): 75.9 mg/mL (≈ 264 mM)
solubility at 72 h (physchem; 6% triethanolamine): 122 mg/mL (≈ 423 mM)
solubility at 72 h (physchem; 8% triethanolamine): 226 mg/mL (≈ 785 mM)
solubility at 72 h (physchem; 10% dimethylacetamide): 0.468 mg/mL (≈ 1.63 mM)
solubility at 72 h (physchem; 10% triethanolamine): 294 mg/mL (≈ 1020 mM)
solubility at 72 h (physchem; 20% dimethylacetamide): 0.956 mg/mL (≈ 3.33 mM)
solubility at 72 h (physchem; [5]): 0.279 mg/mL (≈ 0.971 mM)
solubility at 72 h (physchem; [6]): 0.905 mg/mL (≈ 3.15 mM)
solubility at 72 h (physchem; 30% dimethylacetamide): 2.99 mg/mL (≈ 10.4 mM)
solubility at 72 h (physchem; 40% dimethylacetamide): 7.28 mg/mL (≈ 25.3 mM)
solubility at 72 h (physchem; [7]): 2.33 mg/mL (≈ 8.13 mM)
solubility at 72 h (physchem; [8]): 3.58 mg/mL (≈ 12.5 mM)
solubility at 72 h (physchem; 50% dimethylacetamide): 34.9 mg/mL (≈ 122 mM)
solubility at 72 h (physchem; 60% dimethylacetamide): 52.1 mg/mL (≈ 181 mM)
solubility at 72 h (physchem; [9]): 23.8 mg/mL (≈ 82.7 mM)
solubility at 72 h (physchem; [10]): 20.2 mg/mL (≈ 70.3 mM)
solubility at 72 h (physchem; 80% dimethylacetamide): 2630 mg/mL (≈ 9160 mM)
solubility at 72 h (physchem; [11]): 102 mg/mL (≈ 354 mM)
solubility at 72 h (physchem; [12]): 152 mg/mL (≈ 531 mM)
Solubility (physchem; 100% dimethylacetamide, 72 h): 4734. mg/mL
solubility at 72 h (physchem; [13]): 234 mg/mL (≈ 815 mM)
solubility at 72 h (physchem; 100% peg 400, organic solvent or mixture): 1730 mg/mL (≈ 6030 mM)
solubility at 72 h (physchem; [14]): 102 mg/mL (≈ 355 mM)
symptom relief for acute pain lasting (acute pain; single dose of 200 mg): 4 to 5 h
symptom relief for acute pain lasting (acute pain; single dose of 400 mg): 5 to 6 h

CCc1cccc2c3c([nH]c12)[C@@](CC)(CC(=O)O)OCC3 [R(-) etodolac]
certain purported adverse effects associated with the racemic mixture [2]: substantially reduces

CCc1cccc2c3c([nH]c12)[C@](CC)(CC(=O)O)OCC3 [S(+)-etodolac, S(+) 1,8-diethyl-1,3,4,9-tetrahydropyrano[3,4-b]indole-1-acetic acid]
solubility in alcohols, dimethyl sulfoxide, propylene glycol and aqueous polyethylene glycols [3]: soluble
solubility at 72 h (physchem; 0.001 n hcl, pH 3.24): 0.073 mg/mL (≈ 0.254 mM)
solubility at 72 h (physchem; 0.001 n naoh, pH 8.5): 32.3 mg/mL (≈ 112 mM)
solubility at 72 h (physchem; 0.01 m phosphate buffer, pH 6.4, aqueous buffer): 4.56 mg/mL (≈ 15.9 mM)
solubility at 72 h (physchem; 0.01 m phosphate buffer, pH 6.63, aqueous buffer): 7.81 mg/mL (≈ 27.2 mM)
solubility at 72 h (physchem; 0.04 m borate buffer, pH 8.61, aqueous buffer): 11.6 mg/mL (≈ 40.4 mM)
solubility at 72 h (physchem; 0.04 m phosphate buffer, pH 8.59, aqueous buffer): 15.3 mg/mL (≈ 53.1 mM)
solubility at 72 h (physchem; 0.1 m acetate buffer, pH 4.03, aqueous buffer): 0.093 mg/mL (≈ 0.324 mM)
solubility at 72 h (physchem; 0.1 m acetate buffer, pH 4.41, aqueous buffer): 0.12 mg/mL (≈ 0.418 mM)
solubility at 72 h (physchem; 0.1 m phosphate buffer, pH 4.63, aqueous buffer): 0.193 mg/mL (≈ 0.672 mM)
solubility at 72 h (physchem; 0.1 m phosphate buffer, pH 4.98, aqueous buffer): 0.263 mg/mL (≈ 0.915 mM)
solubility at 72 h (physchem; 0.1 m phosphate buffer, pH 5.82, aqueous buffer): 1.21 mg/mL (≈ 4.22 mM)
solubility at 72 h (physchem; 0.1 n hcl, pH 1.14): 0.08 mg/mL (≈ 0.278 mM)
solubility at 72 h (physchem; 0.1 n hcl, pH 2.13): 0.08 mg/mL (≈ 0.278 mM)
solubility at 72 h (physchem; 0.1 n naoh, pH 7.15): 29.4 mg/mL (≈ 102 mM)
solubility at 72 h (physchem; 0.2 n naoh, pH 7.3): 58.8 mg/mL (≈ 205 mM)
solubility at 72 h (physchem; 2% triethanolamine): 39.4 mg/mL (≈ 137 mM)
solubility at 72 h (physchem; 4% triethanolamine): 77.8 mg/mL (≈ 271 mM)
solubility at 72 h (physchem; 6% triethanolamine): 126 mg/mL (≈ 439 mM)
solubility at 72 h (physchem; 8% triethanolamine): 235 mg/mL (≈ 816 mM)
solubility at 72 h (physchem; 10% dimethylacetamide): 0.468 mg/mL (≈ 1.63 mM)
solubility at 72 h (physchem; 10% triethanolamine): 295 mg/mL (≈ 1030 mM)
solubility at 72 h (physchem; 20% dimethylacetamide): 1.25 mg/mL (≈ 4.34 mM)
solubility at 72 h (physchem; [5]): 0.412 mg/mL (≈ 1.43 mM)
solubility at 72 h (physchem; [6]): 0.663 mg/mL (≈ 2.31 mM)
solubility at 72 h (physchem; 30% dimethylacetamide): 3.56 mg/mL (≈ 12.4 mM)
solubility at 72 h (physchem; 40% dimethylacetamide): 9.96 mg/mL (≈ 34.6 mM)
solubility at 72 h (physchem; [7]): 3.53 mg/mL (≈ 12.3 mM)
solubility at 72 h (physchem; [8]): 3.06 mg/mL (≈ 10.6 mM)
solubility at 72 h (physchem; 50% dimethylacetamide): 89.1 mg/mL (≈ 310 mM)
solubility at 72 h (physchem; 60% dimethylacetamide): 256 mg/mL (≈ 892 mM)
solubility at 72 h (physchem; [9]): 43.7 mg/mL (≈ 152 mM)
solubility at 72 h (physchem; [10]): 16.3 mg/mL (≈ 56.6 mM)
solubility at 72 h (physchem; 80% dimethylacetamide): 419 mg/mL (≈ 1460 mM)
solubility at 72 h (physchem; [11]): 126 mg/mL (≈ 439 mM)
solubility at 72 h (physchem; [12]): 643 mg/mL (≈ 2240 mM)
solubility at 72 h (physchem; 100% dimethylacetamide, organic solvent or mixture): 758 mg/mL (≈ 2640 mM)
solubility at 72 h (physchem; [13]): 284 mg/mL (≈ 987 mM)
Solubility (physchem; 100% peg 400, 72 h): 3460. mg/mL
solubility at 72 h (physchem; [14]): 81.7 mg/mL (≈ 284 mM)
share of the effects of etodolac due to the enantiomer [4]: virtually all of the effects of etodolac are due to the S(+) enantiomer
